Results from PubChem BioAssay (NCI).
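Results reflect a 48-hour exposure of cells in 96-well plates to compound at five concentrations. TGI denotes the concentration required for complete inhibition of growth.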

Legend:
Assay in all cases: NCI tumour cell line growth inhibition, 48 h
[1] = system: SF-268 CNS
[2] = system: CAKI-1 renal
[3] = system: HL-60(TB) leukemia
[4] = system: SK-MEL-5 melanoma
[5] = system: LOX IMVI melanoma
[6] = system: UACC-62 melanoma
[7] = system: HOP-62 NSCLC
[8] = system: A549 NSCLC
[9] = system: RXF 393 renal
[10] = system: HCT-15 colon
[11] = system: KM20L2 colon
[12] = system: IGROV1 ovarian
[13] = system: DMS 114 small cell lung
[14] = system: COLO 205 colon
[15] = system: HOP-18 NSCLC
[16] = system: A498 renal
[17] = system: MOLT-4 leukemia
[18] = system: SK-MEL-28 melanoma
[19] = system: P388 leukemia
[20] = system: OVCAR-4 ovarian
[21] = system: OVCAR-5 ovarian
[22] = system: XF 498 CNS
[23] = system: NCI-H522 lung
[24] = system: DLD-1 colon
[25] = system: SNB-75 CNS
[26] = system: NCI-H226 lung
[27] = system: NCI-H460 lung
[28] = system: UO-31 renal
[29] = system: SF-539 CNS
[30] = system: HCT-116 colon
[31] = system: NCI-H23 lung
[32] = system: SF-295 CNS
[33] = system: K-562 leukemia
[34] = system: OVCAR-3 ovarian
[35] = system: SNB-78 CNS
[36] = system: CCRF-CEM leukemia
[37] = system: KM12 colon
[38] = system: HT29 colon
[39] = system: P388/ADR leukemia
[40] = system: DMS 273 small cell lung
[41] = system: HCC-2998 colon
[42] = system: SN12C renal
[43] = system: RPMI-8226 leukemia
[44] = system: SW-620 colon
[45] = system: EKVX NSCLC
[46] = system: NCI/ADR-RES ovarian
[47] = system: UACC-257 melanoma
[48] = system: U251 CNS
[49] = system: SNB-19 CNS
[50] = system: MCF7 breast
[51] = system: OVCAR-8 ovarian
[52] = system: SN12K1 renal
[53] = system: HOP-92 NSCLC
[54] = system: M19-MEL melanoma
[55] = system: SK-MEL-2 melanoma
[56] = system: SK-OV-3 ovarian
[57] = system: MALME-3M melanoma

C=C1CC(OC)(C(OC)C(=O)N(C)[C@H]2OCO[C@H]3C2O[C@H](C[C@@H](COC)OC)C(C)(C)C3OC)O[C@H](C)[C@@H]1C (some centres undefined)
TGI [1]: 30.2 µM | TGI [2]: 28.5 µM | TGI [3]: 39.6 µM | TGI [4]: > 9.17 µM | TGI [5]: 26.5 µM | TGI [6]: 33.1 µM | TGI [7]: > 91.7 µM | TGI [8]: > 91.7 µM | TGI [9]: 24.8 µM | TGI [10]: 87.3 µM | TGI [11]: 36.8 µM | TGI [12]: 32.5 µM | TGI [13]: 34.9 µM | TGI [14]: 20.9 µM | TGI [15]: 71.2 µM | TGI [16]: 28.8 µM | TGI [17]: 36 µM | TGI [18]: 40.6 µM | TGI [19]: 18.2 µM | TGI [20]: 22.2 µM | TGI [21]: 69.2 µM | TGI [22]: 40.1 µM | TGI [23]: 29.9 µM | TGI [24]: 70.4 µM | TGI [25]: 24.7 µM | TGI [26]: 23.9 µM | TGI [27]: 64.5 µM | TGI [28]: 49.1 µM | TGI [29]: 42.8 µM | TGI [30]: 30.6 µM | TGI [31]: 34.7 µM | TGI [32]: 30 µM | TGI [33]: 40.9 µM | TGI [34]: 37.8 µM | TGI [35]: 43.5 µM | TGI [36]: 37.7 µM | TGI [37]: 25.9 µM | TGI [38]: 29 µM | TGI [39]: 38.8 µM | TGI [40]: 29 µM | TGI [41]: 31.6 µM | TGI [42]: 86.6 µM | TGI [43]: 53.2 µM | TGI [44]: > 91.7 µM | TGI [45]: 60.7 µM | TGI [46]: 41.2 µM | TGI [47]: 30.3 µM | TGI [48]: 54.4 µM | TGI [49]: 46.8 µM | TGI [50]: 28.8 µM | TGI [51]: > 91.7 µM | TGI [52]: 38.6 µM

O=C1NC(c2cccc3ccccc23)Nc2ccc(O)cc21 (centres undefined)
TGI [1]: > 150 µM | TGI [2]: > 144 µM | TGI [3]: 35 µM | TGI [4]: 80.8 µM | TGI [5]: > 75.7 µM | TGI [6]: 78.5 µM | TGI [7]: 121 µM | TGI [8]: > 139 µM | TGI [9]: 91.9 µM | TGI [10]: 78.3 µM | TGI [11]: 113 µM | TGI [12]: 95.7 µM | TGI [13]: 67.1 µM | TGI [53]: 98.9 µM | TGI [14]: 67.4 µM | TGI [15]: 131 µM | TGI [54]: 127 µM | TGI [16]: 75.3 µM | TGI [17]: 75.5 µM | TGI [18]: > 150 µM | TGI [19]: 50.6 µM | TGI [20]: > 150 µM | TGI [21]: 101 µM | TGI [55]: 57.3 µM | TGI [22]: 59.2 µM | TGI [23]: 92.3 µM | TGI [24]: 134 µM | TGI [25]: 106 µM | TGI [26]: 60 µM | TGI [56]: 115 µM | TGI [27]: 69.5 µM | TGI [28]: 78.5 µM | TGI [29]: 91.6 µM | TGI [30]: 122 µM | TGI [31]: > 132 µM | TGI [32]: 104 µM | TGI [33]: > 94.6 µM | TGI [34]: 58.5 µM | TGI [35]: > 150 µM | TGI [57]: 69.5 µM | TGI [36]: 111 µM | TGI [37]: 83.9 µM | TGI [38]: 121 µM | TGI [39]: 83.6 µM | TGI [40]: 64.5 µM | TGI [41]: 88.5 µM | TGI [42]: 133 µM | TGI [43]: 82.5 µM | TGI [44]: > 127 µM | TGI [45]: 128 µM | TGI [46]: 94.2 µM | TGI [47]: > 84.4 µM | TGI [48]: > 141 µM | TGI [49]: 150 µM | TGI [50]: 102 µM | TGI [51]: 111 µM | TGI [52]: 112 µM
